Source: patent US20230233569A1 (Revolution Medicines, Inc., priority 2020, published 2023)
“And” between values parts separate entries of the source, which are not always exact repeats. Equal values may be shown once. Read-outs that look alike come from different tables or passages of the source.

What was measured:
Experiment in all cases: Disruption of BRAF RBD interaction with Ras (FRET / MOA assay, with Cyclophilin A)
Format in all cases: biochemical
[1] = biological target: KRAS WT (Homo sapiens, UniProt P01116+P62937); conditions: KRAS WT; read-out: KRAS WT FRET data IC50
Source text: (§1) This protocol may also be executed substituting other Ras proteins or nucleotides.
(§2) The purpose of this biochemical assay was to measure the ability of test compounds to facilitate ternary complex formation between a nucleotide-loaded K-Ras isoform and Cyclophilin A; the resulting ternary complex disrupts binding to a BRAF^RBD construct, inhibiting K-Ras signaling through a RAF effector. Data is reported as IC50 values.
(§3) Compound was present in plate wells as a 10-point 3-fold dilution series starting at a final concentration of 30 μM. After incubation at 25° C. for 3 hours, a mixture of Anti-His Eu-W1024 and anti-GST allophycocyanin was then added to assay sample wells at final concentrations of 10 nM and 50 nM, respectively, and the reaction incubated for an additional 1.5 hours. […] Compounds that facilitate disruption of a K-Ras:RAF complex were identified as those eliciting a decrease in the TR-FRET ratio relative to DMSO control wells.
as §2, with “BRAF^RBDD” for “BRAF^RBD”

[2] = biological target: KRAS G12V (Homo sapiens, UniProt P01116+P62937, G12V); conditions: KRAS G12V; read-out: KRAS G12V FRET data IC50
Source text: as §1, §2, §3
as §2, with “BRAF^RBDD” for “BRAF^RBD”

[3] = biological target: KRAS G12C (Homo sapiens, UniProt P01116+P62937, G12C); conditions: KRAS G12C; read-out: KRAS G12C FRET data IC50
Source text: as §1, §2, §3
as §2, with “BRAF^RBDD” for “BRAF^RBD”

[4] = biological target: KRAS G12S (Homo sapiens, UniProt P01116+P62937, G12S); conditions: read-out: KRAS G12S FRET data, IC50
Source text: as §1, §2, §3
as §2, with “BRAF^RBDD” for “BRAF^RBD”

[5] = biological target: KRAS G12D (Homo sapiens, UniProt P01116+P62937, G12D); conditions: read-out: KRAS G12D FRET data, IC50
Source text: as §1, §2, §3
as §2, with “BRAF^RBDD” for “BRAF^RBD”

[6] = biological target: KRAS G13C (Homo sapiens, UniProt P01116+P62937, G13C)
Source text: as §1, §2, §3
as §2, with “BRAF^RBDD” for “BRAF^RBD”

[7] = KRAS G13C, read-out: KRAS G13C FRET data IC50

Chain of KRAS G12D (P01116 1-169 isoform P01116-2 G12D limits assumed): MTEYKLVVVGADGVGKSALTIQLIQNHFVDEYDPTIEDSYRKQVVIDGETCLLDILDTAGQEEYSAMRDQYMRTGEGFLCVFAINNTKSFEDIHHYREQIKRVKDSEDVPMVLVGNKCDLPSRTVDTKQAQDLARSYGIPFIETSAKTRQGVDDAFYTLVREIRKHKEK
Chain of KRAS G12D (P62937 whole entry): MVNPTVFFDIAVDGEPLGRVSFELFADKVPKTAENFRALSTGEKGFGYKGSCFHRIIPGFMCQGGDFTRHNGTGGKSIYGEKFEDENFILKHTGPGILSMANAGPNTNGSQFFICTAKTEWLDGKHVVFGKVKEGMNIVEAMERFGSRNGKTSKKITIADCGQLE
Chain of KRAS WT (P01116 1-169 isoform P01116-2 limits assumed): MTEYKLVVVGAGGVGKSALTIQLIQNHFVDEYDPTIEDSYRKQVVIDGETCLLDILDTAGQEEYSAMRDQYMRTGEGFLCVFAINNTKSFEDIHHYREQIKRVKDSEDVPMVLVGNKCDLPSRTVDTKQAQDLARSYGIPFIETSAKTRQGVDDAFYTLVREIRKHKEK
Chain of KRAS WT (P62937 whole entry): as the sequence (P62937 whole entry) above
Chain of KRAS G12S (P01116 1-169 isoform P01116-2 G12S limits assumed): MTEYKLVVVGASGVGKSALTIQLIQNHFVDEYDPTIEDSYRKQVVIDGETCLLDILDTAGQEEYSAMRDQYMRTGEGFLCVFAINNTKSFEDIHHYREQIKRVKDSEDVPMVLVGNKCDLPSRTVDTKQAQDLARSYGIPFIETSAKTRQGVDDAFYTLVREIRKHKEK
Chain of KRAS G12S (P62937 whole entry): as the sequence (P62937 whole entry) above
Chain of KRAS G12V (P01116 1-169 isoform P01116-2 G12V limits assumed): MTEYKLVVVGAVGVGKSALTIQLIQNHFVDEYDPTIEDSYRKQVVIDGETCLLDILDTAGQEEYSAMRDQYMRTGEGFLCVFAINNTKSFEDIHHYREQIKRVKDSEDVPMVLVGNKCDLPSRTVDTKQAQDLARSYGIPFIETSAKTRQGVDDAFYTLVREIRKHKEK
Chain of KRAS G12V (P62937 whole entry): as the sequence (P62937 whole entry) above
Chain of KRAS G12C (P01116 1-169 isoform P01116-2 G12C): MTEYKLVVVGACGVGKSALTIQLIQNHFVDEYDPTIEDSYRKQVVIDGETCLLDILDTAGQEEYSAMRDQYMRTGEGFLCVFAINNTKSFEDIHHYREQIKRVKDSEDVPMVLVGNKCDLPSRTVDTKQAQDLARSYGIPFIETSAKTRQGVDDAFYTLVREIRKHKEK
Chain of KRAS G12C (P62937 whole entry): as the sequence (P62937 whole entry) above
Chain of KRAS G13C (P01116 1-169 isoform P01116-2 G13C): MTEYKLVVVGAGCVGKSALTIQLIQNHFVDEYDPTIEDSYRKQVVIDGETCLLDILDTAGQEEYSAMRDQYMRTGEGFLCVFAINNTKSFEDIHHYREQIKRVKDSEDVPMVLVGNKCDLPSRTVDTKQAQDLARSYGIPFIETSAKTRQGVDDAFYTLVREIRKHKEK
Chain of KRAS G13C (P62937 whole entry): as the sequence (P62937 whole entry) above

IC50 [1]	IC50 [2]	IC50 [3]	IC50 [4]	IC50 [5]	IC50 [6, 7]	IC50 ([6]; read-out: KRAS G13C FRET data, IC50)	Structure (SMILES)
> 10000 nM	1000 to 10000 nM	100 to 1000 nM	1000 to 10000 nM	> 10000 nM	1000 to 10000 nM	–	C=CC(=O)N1CC[C@H](C(=O)N(C)[C@H](C(=O)N[C@H]2Cc3cc(O)cc(c3)-c3ccc4c(c3)c(c(-c3cnn(C)c3)n4CC)CC(C)(C)COC(=O)[C@@H]3CCCN(N3)C2=O)C(C)C)C1 [Example A099]
> 10000 nM	> 10000 nM	1000 to 10000 nM	> 10000 nM	> 10000 nM	> 10000 nM	–	C=CC(=O)N1CC[C@H](C(=O)N(C)[C@H](C(=O)N[C@H]2Cc3cc(O)cc(c3)-c3ccc4c(c3)c(c(-c3ccc(CC(=O)O)cc3)n4CC)CC(C)(C)COC(=O)[C@@H]3CCCN(N3)C2=O)C(C)C)C1 [Example A021]
> 10000 nM	1000 to 10000 nM	100 to 1000 nM	1000 to 10000 nM	> 10000 nM	1000 to 10000 nM	–	C=CC(=O)N1CC[C@H](C(=O)N(C)[C@H](C(=O)N[C@H]2Cc3cc(O)cc(c3)-c3ccc4c(c3)c(c(-c3ccc(CN5CC[C@@H](O)C5)cc3)n4CC)CC(C)(C)COC(=O)[C@@H]3CCCN(N3)C2=O)C(C)C)C1 [Examples A001]
1000 to 10000 nM	1000 to 10000 nM	100 to 1000 nM	1000 to 10000 nM	> 10000 nM	1000 to 10000 nM	–	C=CC(=O)N1CC[C@H](C(=O)N(C)[C@H](C(=O)N[C@H]2Cc3cc(O)cc(c3)-c3ccc4c(c3)c(c(-c3ccc5cc(CN(C)C)n(C)c5c3)n4CC)CC(C)(C)COC(=O)[C@@H]3CCCN(N3)C2=O)C(C)C)C1 [Example A035]
1000 to 10000 nM	1000 to 10000 nM	100 to 1000 nM	1000 to 10000 nM	> 10000 nM	1000 to 10000 nM	–	C=CC(=O)N1CC[C@H](C(=O)N(C)[C@H](C(=O)N[C@H]2Cc3cc(OC(=O)CN)cc(c3)-c3ccc4c(c3)c(c(-c3ccccc3CCOC)n4CC)CC(C)(C)COC(=O)[C@@H]3CCCN(N3)C2=O)C(C)C)C1 [Example A008]
1000 to 10000 nM	100 to 1000 nM	100 to 1000 nM	100 to 1000 nM	1000 to 10000 nM	1000 to 10000 nM	–	C=CC(=O)N1CC[C@H](C(=O)N(C)[C@H](C(=O)N[C@H]2Cc3cc(O)cc(c3)-c3ccc4c(c3)c(c(-c3ccccc3CCOC)n4C(C)(C)C#N)CC(C)(C)COC(=O)[C@@H]3CCCN(N3)C2=O)C(C)C)C1 [Example A034]
1000 to 10000 nM	100 to 1000 nM	10 to 100 nM	100 to 1000 nM	1000 to 10000 nM	100 to 1000 nM	–	CCn1c(-c2ccccc2CN(C)C)c2c3cc(ccc31)-c1cc(O)cc(c1)C[C@H](NC(=O)[C@H](C(C)C)N(C)C(=O)[C@H]1CCN(C(=O)/C=C/CN(C)C)C1)C(=O)N1CCC[C@H](N1)C(=O)OCC(C)(C)C2 [Example A047]
100 to 1000 nM	100 to 1000 nM	10 to 100 nM	100 to 1000 nM	1000 to 10000 nM	100 to 1000 nM	–	C=CC(=O)N1CC[C@H](C(=O)N(C)[C@H](C(=O)N[C@H]2Cc3cc(O)cc(c3)-c3ccc4c(c3)c(c(-c3ccccc3CN(C)C)n4CC)CC(C)(C)COC(=O)[C@@H]3CCCN(N3)C2=O)C(C)C)C1 [Example A005]
100 to 1000 nM	100 to 1000 nM	10 to 100 nM	100 to 1000 nM	1000 to 10000 nM	100 to 1000 nM	–	CCn1c(-c2cccnc2COC)c2c3cc(ccc31)-c1cc(O)cc(c1)C[C@H](NC(=O)[C@H](C(C)C)N(C)C(=O)[C@H]1CCN(C(=O)/C=C/CN3CCN(C)CC3)C1)C(=O)N1CCC[C@H](N1)C(=O)OCC(C)(C)C2 [Example A072]
1000 to 10000 nM	1000 to 10000 nM	100 to 1000 nM	1000 to 10000 nM	> 10000 nM	100 to 1000 nM	–	C=CC(=O)N1CCCN(C(=O)N(C)[C@H](C(=O)N[C@H]2Cc3cc(O)cc(c3)-c3ccc4c(c3)c(c(-c3ccccc3CCOC)n4CC)CC(C)(C)COC(=O)[C@@H]3CCCN(N3)C2=O)C(C)C)CC1 [Example A013]
1000 to 10000 nM	> 10000 nM	100 to 1000 nM	1000 to 10000 nM	> 10000 nM	1000 to 10000 nM	–	CCn1c(-c2ccccc2CCOC)c2c3cc(ccc31)-c1cc(O)cc(c1)C[C@H](NC(=O)[C@H](C(C)C)N(C)C(=O)C1CCN(C(=O)/C=C/CN(C)C)CC1)C(=O)N1CCC[C@H](N1)C(=O)OCC(C)(C)C2 [Example A019]
–	–	–	–	1000 to 10000 nM	–	–	C=C(C)C(=O)N1CC(N(C)C(=O)N(C)[C@H](C(=O)N[C@H]2Cc3nc(cs3)-c3ccc4c(c3)c(c(-c3cccnc3[C@H](C)OC)n4CC)CC(C)(C)COC(=O)[C@@H]3CCCN(N3)C2=O)C(C)C)C1 (atropisomer, axis not shown) [Example A360]
–	–	–	–	> 10000 nM	–	–	C=CC(=O)N1CC[C@H](C(=O)N(C)[C@H](C(=O)N[C@H]2Cc3cc(O)cc(c3)-c3ccc4c(c3)c(c(-c3ccc(N5CCN(C)CC5)nc3)n4CC)CC(C)(C)COC(=O)[C@@H]3CCCN(N3)C2=O)C(C)C)C1 [Example A089]

Second part, the compound before the results:

Structure (SMILES)	IC50 [1]	IC50 [2]	IC50 [3]	IC50 [4]	IC50 [5]	IC50 [6, 7]	IC50 ([6]; read-out: KRAS G13C FRET data, IC50)
C=CC(=O)N1CCC(C(=O)N(C)[C@H](C(=O)N[C@H]2Cc3cc(O)cc(c3)-c3ccc4c(c3)c(c(-c3ccccc3CN(C)C)n4CC)CC(C)(C)COC(=O)[C@@H]3CCCN(N3)C2=O)C(C)C)CC1 [Example A033]	1000 to 10000 nM	> 10000 nM	100 to 1000 nM	1000 to 10000 nM	> 10000 nM	100 to 1000 nM	–
C=CC(=O)N1CC[C@H](C(=O)N(C)[C@H](C(=O)N[C@H]2Cc3cc(O)cc(c3)-c3ccc4c(c3)c(c(-c3ccc(CN5CCCC5)cc3)n4CC)CC(C)(C)COC(=O)[C@@H]3CCCN(N3)C2=O)C(C)C)C1 [Example A010]	1000 to 10000 nM	1000 to 10000 nM	100 to 1000 nM	1000 to 10000 nM	> 10000 nM	1000 to 10000 nM	–
C=CC(=O)N1CC[C@H](C(=O)N(C)[C@H](C(=O)N[C@H]2Cc3cc(O)cc(c3)-c3ccc4c(c3)c(c(-c3cccc(CN(C)C)c3)n4CC)CC(C)(C)COC(=O)[C@@H]3CCCN(N3)C2=O)C(C)C)C1 [Example A030]	1000 to 10000 nM	1000 to 10000 nM	100 to 1000 nM	1000 to 10000 nM	> 10000 nM	1000 to 10000 nM	–
C=CC(=O)N1CC[C@H](C(=O)N(C)[C@H](C(=O)N[C@H]2Cc3cc(O)cc(c3)-c3ccc4c(c3)c(c(-c3ccncc3CCOC)n4CC)CC(C)(C)COC(=O)[C@@H]3CCCN(N3)C2=O)C(C)C)C1 (single isomer, unassigned) [Example A048]	1000 to 10000 nM and > 10000 nM	100 to 1000 nM and > 10000 nM	10 to 100 nM and 1000 to 10000 nM	100 to 1000 nM and > 10000 nM	1000 to 10000 nM and > 10000 nM	100 to 1000 nM and > 10000 nM	–
CCn1c(-c2cccnc2[C@H](C)OC)c2c3cc(ccc31)-c1csc(n1)C[C@H](NC(=O)[C@H](C(C)C)N(C)C(=O)O[C@H]1CCN(C)C1)C(=O)N1CCC[C@H](N1)C(=O)OCC(C)(C)C2 [Example A173]	–	–	–	–	–	–	1000 to 10000 nM
C=CC(=O)N1CC[C@H](C(=O)N(C)[C@H](C(=O)N[C@H]2Cc3cc(O)cc(c3)-c3ccc4c(c3)c(c(-c3cccnc3COC)n4CC)CC(C)(C)COC(=O)[C@@H]3CCCN(N3)C2=O)C2CCCC2)C1 [Example A055]	1000 to 10000 nM	100 to 1000 nM	10 to 100 nM	100 to 1000 nM	1000 to 10000 nM	100 to 1000 nM	–
C=CC(=O)N1CC[C@H](C(=O)N(C)[C@H](C(=O)N[C@H]2Cc3cc(O)cc(c3)-c3ccc4c(c3)c(c(-c3cccnc3CN(C)C)n4CC)CC(C)(C)COC(=O)[C@@H]3CCCN(N3)C2=O)C(C)C)C1 [Example A092]	1000 to 10000 nM	1000 to 10000 nM	100 to 1000 nM	1000 to 10000 nM	> 10000 nM	1000 to 10000 nM	–
C=CC(=O)N1CC[C@H](C(=O)N(C)[C@H](C(=O)N[C@H]2Cc3cc(O)cc(c3)-c3ccc4c(c3)c(c(-c3ccc(C5CCN(C)CC5)cc3)n4CC)CC(C)(C)COC(=O)[C@@H]3CCCN(N3)C2=O)C(C)C)C1 [Example A039]	1000 to 10000 nM	1000 to 10000 nM	100 to 1000 nM	1000 to 10000 nM	1000 to 10000 nM	1000 to 10000 nM	–
C=CC(=O)N1CC[C@H](C(=O)N(C)[C@H](C(=O)N[C@H]2Cc3cc(O)cc(c3)-c3ccc4c(c3)c(c(-c3cnccc3[C@H](C)OC)n4CC)CC(C)(C)COC(=O)[C@@H]3CCCN(N3)C2=O)C(C)C)C1 [Example A112]	–	–	< 10 nM	–	–	–	–
C=CC(=O)N1CC[C@H](C(=O)N(C)[C@H](C(=O)N[C@H]2Cc3cc(O)cc(c3)-c3ccc4c(c3)c(c(-c3cccnc3COCC)n4CC)CC(C)(C)COC(=O)[C@@H]3CCCN(N3)C2=O)C(C)C)C1 [Example A044]	1000 to 10000 nM	100 to 1000 nM	10 to 100 nM	100 to 1000 nM	1000 to 10000 nM	100 to 1000 nM	–
